{
  "source": "the supplement of paper PMC10307832",
  "experiment_in_all_cases": "relative viability (nuclei count vs DMSO), 5 days (fraction); higher = more cells survive",
  "key": {"[1]": {"compound": "C1=CC=C(C(=C1)C2=CC=C(C=C2)C3=CSC4=C3C(=C(C(=O)N4)C#N)O)O + C[C@]1(O)C[C@@H](c2nc(-c3ccc4ccc(-c5ccccc5)nc4c3)c3c(N)nccn32)C1 [Linsitinib] (partner 1 µM)", "method_in_brief": "(§1)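 Lung cancer cell lines were pin-tool dosed in 1536-well plates on the day after seeding, with either a lone drug or a fixed anchor-drug dose plus five library-drug doses (not always all listed) in √10 steps. Nuclei were counted on 4× images after 5 days. Relative viability is the ratio of treated-well to vehicle-well nuclei counts, with each value a median of duplicate plates.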"}, "[2]": {"compound": "CC1=CN2C(=O)C=C(N=C2C(=C1)C(C)NC3=CC=CC=C3)N4CCOCC4 [TGX 221] + CC1(C)CCC(c2ccc(Cl)cc2)=C(CN2CCN(c3ccc(C(=O)NS(=O)(=O)c4ccc(N[C@H](CCN5CCOCC5)CSc5ccccc5)c(S(=O)(=O)C(F)(F)F)c4)cc3)CC2)C1 [Navitoclax] (partner 0.5 µM)", "method_in_brief": "as §1"}, "[3]": {"compound": "CC1=CN2C(=O)C=C(N=C2C(=C1)C(C)NC3=CC=CC=C3)N4CCOCC4 [TGX 221] + COc1cccc2cc(-c3nc([C@H]4CC[C@H](C(=O)O)CC4)n4ncnc(N)c34)[nH]c12 [OSI-027] (partner 0.5 µM)", "method_in_brief": "as §1"}, "[4]": {"compound": "CC1=CN2C(=O)C=C(N=C2C(=C1)C(C)NC3=CC=CC=C3)N4CCOCC4 [TGX 221] + C[C@]1(O)C[C@@H](c2nc(-c3ccc4ccc(-c5ccccc5)nc4c3)c3c(N)nccn32)C1 [Linsitinib] (partner 1 µM)", "method_in_brief": "as §1"}},
  "data": [
    {"cell line": "NCI-H1792", "values": [
      {"measurement": "relative viability", "setting": "[1]; first compound 0.253 µM", "result": 0.436},
      {"measurement": "relative viability", "setting": "[1]; first compound 0.8 µM", "result": 0.542},
      {"measurement": "relative viability", "setting": "[1]; first compound 2.53 µM", "result": 0.474},
      {"measurement": "relative viability", "setting": "[1]; first compound 8 µM", "result": 0.317},
      {"measurement": "relative viability", "setting": "[2]; first compound 0.08 µM", "result": 0.549},
      {"measurement": "relative viability", "setting": "[2]; first compound 0.253 µM", "result": 0.713},
      {"measurement": "relative viability", "setting": "[2]; first compound 0.8 µM", "result": 0.591},
      {"measurement": "relative viability", "setting": "[2]; first compound 2.53 µM", "result": 0.62},
      {"measurement": "relative viability", "setting": "[2]; first compound 8 µM", "result": 0.625},
      {"measurement": "relative viability", "setting": "[3]; first compound 0.08 µM", "result": 0.768},
      {"measurement": "relative viability", "setting": "[3]; first compound 0.253 µM", "result": 0.601},
      {"measurement": "relative viability", "setting": "[3]; first compound 0.8 µM", "result": 0.71},
      {"measurement": "relative viability", "setting": "[3]; first compound 2.53 µM", "result": 0.517},
      {"measurement": "relative viability", "setting": "[3]; first compound 8 µM", "result": 0.564},
      {"measurement": "relative viability", "setting": "[4]; first compound 0.08 µM", "result": 0.501},
      {"measurement": "relative viability", "setting": "[4]; first compound 0.253 µM", "result": 0.553},
      {"measurement": "relative viability", "setting": "[4]; first compound 0.8 µM", "result": 0.361},
      {"measurement": "relative viability", "setting": "[4]; first compound 2.53 µM", "result": 0.435},
      {"measurement": "relative viability", "setting": "[4]; first compound 8 µM", "result": 0.326}
    ]}
  ]
}
